Assay results taken from ChEMBL document CHEMBL6121066, “Structure-Activity Relationship Studies of DNA Methyltransferase 1 Monovalent Degraders” (J Med Chem, 2025).
The source made the active and inactive calls. The rule behind the calls is not given here.

Experiments:
[1] = (§1) Induction of molecular glue effect mediated DNMT1 degradation in human HCT-116 cells assessed as reduction in DNMT1 protein level incubated for 24 hrs by Western blot analysis; type: cell-based; details: HCT-116, 24 h
HCT-116 [2] = assay: Induction of molecular glue effect mediated DNMT1 degradation in human HCT-116 cells assessed as reduction in DNMT1 protein level by measuring maximal efficacy at 1 uM incubated for 24 hrs by Western blot analysis relative to control; type: cell-based
[3] = biological target: DNA (cytosine-5)-methyltransferase 1 (Homo sapiens, UniProt P26358); assay: Inhibition of human DNMT1 (350 to 1600 residues) extracted from Escherichia coli BL21 (DE3)-codon plus-RIL cells in presence of SAM and hemimethylated DNA
Sequence of DNA (cytosine-5)-methyltransferase 1 (P26358 whole entry, the tested form may be a part): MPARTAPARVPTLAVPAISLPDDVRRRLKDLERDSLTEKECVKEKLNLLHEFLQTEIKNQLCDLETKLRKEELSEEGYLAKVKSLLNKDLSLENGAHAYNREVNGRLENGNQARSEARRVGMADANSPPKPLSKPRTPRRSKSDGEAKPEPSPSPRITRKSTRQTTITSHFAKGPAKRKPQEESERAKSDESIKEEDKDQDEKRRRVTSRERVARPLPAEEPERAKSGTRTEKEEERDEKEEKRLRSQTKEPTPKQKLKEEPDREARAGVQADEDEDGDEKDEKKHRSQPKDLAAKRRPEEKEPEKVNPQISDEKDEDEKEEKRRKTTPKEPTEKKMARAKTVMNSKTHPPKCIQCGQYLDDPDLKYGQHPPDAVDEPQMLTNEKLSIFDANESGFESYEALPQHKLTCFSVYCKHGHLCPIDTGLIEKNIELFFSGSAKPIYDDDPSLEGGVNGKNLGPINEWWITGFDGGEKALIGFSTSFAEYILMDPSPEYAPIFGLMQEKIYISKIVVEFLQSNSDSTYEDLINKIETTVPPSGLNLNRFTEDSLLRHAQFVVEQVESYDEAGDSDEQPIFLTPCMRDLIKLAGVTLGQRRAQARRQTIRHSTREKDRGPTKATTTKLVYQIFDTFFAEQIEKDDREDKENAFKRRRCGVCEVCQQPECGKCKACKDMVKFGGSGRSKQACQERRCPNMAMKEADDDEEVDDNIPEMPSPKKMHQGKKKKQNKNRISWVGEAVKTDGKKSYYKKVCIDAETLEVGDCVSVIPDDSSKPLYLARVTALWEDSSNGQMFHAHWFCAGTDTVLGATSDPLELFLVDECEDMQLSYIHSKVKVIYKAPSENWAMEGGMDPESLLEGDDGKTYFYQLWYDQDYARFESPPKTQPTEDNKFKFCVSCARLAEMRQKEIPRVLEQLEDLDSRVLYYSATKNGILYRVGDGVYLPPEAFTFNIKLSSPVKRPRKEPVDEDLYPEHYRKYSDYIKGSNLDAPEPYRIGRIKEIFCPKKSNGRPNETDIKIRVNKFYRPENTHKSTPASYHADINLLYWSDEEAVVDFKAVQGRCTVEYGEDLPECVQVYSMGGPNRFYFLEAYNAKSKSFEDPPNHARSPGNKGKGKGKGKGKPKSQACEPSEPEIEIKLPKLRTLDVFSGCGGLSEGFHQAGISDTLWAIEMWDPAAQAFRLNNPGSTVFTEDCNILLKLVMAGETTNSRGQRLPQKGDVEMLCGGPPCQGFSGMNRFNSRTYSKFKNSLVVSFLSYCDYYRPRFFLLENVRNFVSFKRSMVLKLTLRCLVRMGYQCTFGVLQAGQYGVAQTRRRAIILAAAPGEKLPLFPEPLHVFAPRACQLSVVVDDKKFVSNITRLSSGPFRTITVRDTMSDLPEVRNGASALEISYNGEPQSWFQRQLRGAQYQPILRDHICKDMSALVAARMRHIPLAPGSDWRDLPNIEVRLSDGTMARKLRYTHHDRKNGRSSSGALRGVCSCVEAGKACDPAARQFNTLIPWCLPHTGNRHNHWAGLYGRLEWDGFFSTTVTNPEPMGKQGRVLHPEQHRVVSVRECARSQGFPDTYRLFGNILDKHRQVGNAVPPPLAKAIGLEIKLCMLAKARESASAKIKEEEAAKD

HCT-116 [4] = assay: as §1; type: cell-based
HCT-116 [5] = assay: Induction of molecular glue effect mediated DNMT1 degradation in human HCT-116 cells assessed as reduction in DNMT1 protein level at 500 nM by Western blot analysis; type: cell-based; details: time 2-24 hrs
HCT-116 [6] = assay: Induction of molecular glue effect mediated DNMT1 degradation in human HCT-116 cells assessed as reduction in DNMT1 protein level at 500 nM measured after 2 hrs by Western blot analysis relative to control; type: cell-based; design: scale not given: the % may be the effect or the level left
HCT-116 [7] = assay: Induction of molecular glue effect mediated DNMT1 degradation in human HCT-116 cells assessed as reduction in DNMT1 protein level at 500 nM measured after 24 hrs by Western blot analysis relative to control; type: cell-based; design: scale not given: the % may be the effect or the level left
HCT-116 [8] = assay: Induction of molecular glue effect mediated DNMT1 degradation in human HCT-116 cells assessed as reduction in DNMT1 protein level by measuring half-life at 500 nM preincubated with cycloheximide for 2 hrs followed by compound administration and measured after 24 hrs by Western blot analysis; type: cell-based
HCT-116 [9] = assay: Effect on DNMT1 mRNA level in human HCT-116 cells at 500 nM incubated for 24 hrs by RT-qPCR analysis; type: functional, cell-based
HCT-116 [10] = assay: Antiproliferative activity against human HCT-116 cells assessed as inhibition of cell growth upto 15 uM incubated for 7 days by CCK8 assay relative to control; type: functional; details: time 7 day, up to 15 µM
MDA-MB-468 [11] = assay: Effect on DNMT1 mRNA level in human MDA-MB-468 cells at 500 nM incubated for 24 hrs by RT-qPCR analysis; type: functional, cell-based
NCI-H1299 [12] = assay: Effect on DNMT1 mRNA level in human NCI-H1299 cells at 500 nM incubated for 24 hrs by RT-qPCR analysis; type: functional, cell-based
HCT-116 [13] = assay: Induction of molecular glue effect mediated DNMT3A degradation in human HCT-116 cells assessed as reduction in DNMT3A protein level at 500 nM incubated for 24 hrs by Western blot analysis; type: cell-based
HCT-116 [14] = assay: Induction of molecular glue effect mediated DNMT3B degradation in human HCT-116 cells assessed as reduction in DNMT3B protein level at 500 nM incubated for 24 hrs by Western blot analysis; type: cell-based
HCT-116 [15] = assay: Downregulation of DNMT1 protein level in human HCT-116 cells at 1 uM incubated for 12 hrs by MS-based global proteomic analysis; type: functional, cell-based
MV4-11 = assay: Antiproliferative activity against human MV4-11 cells assessed as inhibition of cell growth at 0.177 to 15 uM incubated for 7 days by CCK8 assay; type: functional, cell-based; details: dose 0.177-15 µM, time 7.0 day
HCT-116 [16] = assay: Induction of molecular glue effect mediated DNMT1 degradation in human HCT-116 cells assessed as reduction in DNMT1 protein level at 100 nM preincubated with MG132 for 2 hrs followed by compound addition and measured after 24 hrs by Western blot analysis; type: cell-based
HCT-116 [17] = assay: Induction of molecular glue effect mediated DNMT1 degradation in human HCT-116 cells assessed as reduction in DNMT1 protein level at 100 nM preincubated with lysosome inhibitor CQ for 2 hrs followed by compound addition and measured after 24 hrs by Western blot analysis; type: cell-based
MDA-MB-468 [18] = assay: Induction of molecular glue effect mediated DNMT1 degradation in human MDA-MB-468 cells assessed as reduction in DNMT1 protein level at 100 nM preincubated with MG132 for 2 hrs followed by compound addition and measured after 24 hrs by Western blot analysis; type: cell-based
NCI-H1299 [19] = assay: Induction of molecular glue effect mediated DNMT1 degradation in human NCI-H1299 cells assessed as reduction in DNMT1 protein level at 100 nM preincubated with MG132 for 2 hrs followed by compound addition and measured after 24 hrs by Western blot analysis; type: cell-based
HCT-116 [20] = assay: Induction of molecular glue effect mediated DNMT1 degradation in human HCT-116 cells assessed as reduction in DNMT1 protein level at 100 nM preincubated with TAK-243 for 2 hrs followed by compound addition and measured after 24 hrs by Western blot analysis; type: cell-based
HCT-116 [21] = assay: Induction of molecular glue effect mediated DNMT1 degradation in human HCT-116 cells assessed as reduction in DNMT1 protein level at 100 nM preincubated with MLN4924 for 2 hrs followed by compound addition and measured after 24 hrs by Western blot analysis; type: cell-based
MDA-MB-468 [22] = assay: Induction of molecular glue effect mediated DNMT1 degradation in human MDA-MB-468 cells assessed as reduction in DNMT1 protein level at 100 nM preincubated with MLN4924 for 2 hrs followed by compound addition and measured after 24 hrs by Western blot analysis; type: cell-based
NCI-H1299 [23] = assay: Induction of molecular glue effect mediated DNMT1 degradation in human NCI-H1299 cells assessed as reduction in DNMT1 protein level at 100 nM preincubated with MLN4924 for 2 hrs followed by compound addition and measured after 24 hrs by Western blot analysis; type: cell-based
HCT-116 [24] = assay: Induction of molecular glue effect mediated DNMT1 degradation in human HCT-116 cells assessed as reduction in DNMT1 protein level at 100 nM preincubated with TRAF6 inhibitor C25-140 for 2 hrs followed by compound addition and measured after 24 hrs by Western blot analysis; type: cell-based
HCT-116 [25] = assay: Induction of molecular glue effect mediated DNMT1 degradation in human HCT-116 cells assessed as reduction in DNMT1 protein level at 100 nM preincubated with heclin for 2 hrs followed by compound addition and measured after 24 hrs by Western blot analysis; type: cell-based
HCT-116 [26] = assay: Induction of molecular glue effect mediated DNMT1 degradation in human HCT-116 cells transfected with Smurf2 siRNA assessed as reduction in DNMT1 protein level at 100 nM measured after 24 hrs by Western blot analysis; type: cell-based
HCT-116 [27] = assay: Induction of molecular glue effect mediated DNMT1 degradation in human HCT-116 cells transfected with NEDD4 siRNA assessed as reduction in DNMT1 protein level at 100 nM measured after 24 hrs by Western blot analysis; type: cell-based
HCT-116 [28] = assay: Induction of molecular glue effect mediated DNMT1 degradation in human HCT-116 cells transfected with WWP1 siRNA assessed as reduction in DNMT1 protein level at 100 nM measured after 24 hrs by Western blot analysis; type: cell-based
HCT-116 [29] = assay: Induction of molecular glue effect mediated DNMT1 degradation in human HCT-116 cells transfected with UHRF1 siRNA assessed as reduction in DNMT1 protein level at 100 nM measured after 24 hrs by Western blot analysis; type: cell-based

CCc1c(C#N)c(SC(C(N)=O)c2ccccc2)nc(N2CCN(C(=O)CC(C)C)CC2)c1C#N (stereo unspecified)
DC50 [1]: 65 nM | Emax (HCT-116 [2]): 93%

CCCNC(=O)C(Sc1nc(N2CCC(N)CC2)c(C#N)c(CC)c1C#N)c1ccccc1 (stereo unspecified)
DC50 [1]: > 1000 nM | Emax (HCT-116 [2]): 13%

CCc1c(C#N)c(SC(C(N)=O)c2ccccc2)nc(N(C)CCN)c1C#N (stereo unspecified)
DC50 [1]: 78 nM | Emax (HCT-116 [2]): 79%

CCC(=O)N1CCN(c2nc(SC(C(N)=O)c3ccccc3)c(C#N)c(CC)c2C#N)CC1 (stereo unspecified)
DC50 [1]: 51 nM | Emax (HCT-116 [2]): 89%

CCc1c(C#N)c(SC(C(N)=O)c2ccccc2)nc(N2CCN(C(=O)c3nccs3)CC2)c1C#N (stereo unspecified)
DC50 [1]: 89 nM | Emax (HCT-116 [2]): 90%

CCc1c(C#N)c(SC(C(N)=O)c2ccccc2)nc(N2CCN(C(=O)C34CC5CC(CC(C5)C3)C4)CC2)c1C#N (stereo unspecified)
DC50 [1]: 409 nM | Emax (HCT-116 [2]): 80%

CCc1c(C#N)c(NCC(N)=O)nc(SC(C(N)=O)c2ccccc2)c1C#N (stereo unspecified)
DC50 [1]: > 1000 nM | Emax (HCT-116 [2]): 32% | IC50 [3]: > 3000 nM

CCc1c(C#N)c(SC(C(N)=O)c2ccccc2)nc(N2CCN(C)C(=O)C2)c1C#N (stereo unspecified)
DC50 [1]: 190 nM | Emax (HCT-116 [2]): 87%

CCc1c(C#N)c(SC(C(N)=O)c2ccccc2)nc(N2CCC(N)CC2)c1C#N (stereo unspecified)
Activity (HCT-116 [4]): Dose-dependent-effect | Emax (HCT-116 [2]): 89% | Activity (HCT-116 [5]): Time-dependent-effect | Activity (HCT-116 [6]): < 30% | Activity (HCT-116 [7]): 100% | T1/2 (HCT-116 [8]): < 4 h | Activity (HCT-116 [9]): inactive | inhibition (INH) (HCT-116 [10]): <50% | Activity (MDA-MB-468 [11]): inactive | Activity (NCI-H1299 [12]): inactive | Activity (HCT-116 [13]): inactive | Activity (HCT-116 [14]): inactive | Activity (HCT-116 [15]): Active | Activity (MV4-11): Active | Activity (HCT-116 [16]): inactive | Activity (HCT-116 [17]): Active | Activity (MDA-MB-468 [18]): inactive | Activity (NCI-H1299 [19]): inactive | Activity (HCT-116 [20]): inactive | Activity (HCT-116 [21]): Active | Activity (MDA-MB-468 [22]): Active | Activity (NCI-H1299 [23]): Active | Activity (HCT-116 [24]): Active | Activity (HCT-116 [25]): Not active; Partial Rescue Of Degradation Observed | Activity (HCT-116 [26]): Active | Activity (HCT-116 [27]): Active | Activity (HCT-116 [28]): Active | Activity (HCT-116 [29]): Not active; Partial Rescue Of Degradation Observed

CCc1c(C#N)c(SC(C(N)=O)c2ccccc2)nc(N2CCCNCC2)c1C#N (stereo unspecified)
DC50 [1]: 119 nM | Emax (HCT-116 [2]): 87%

CCc1c(C#N)c(SC(C(N)=O)c2ccccc2)nc(N2CC3(CN(C(=O)C(C)(C)C)C3)C2)c1C#N (stereo unspecified)
DC50 [1]: 946 nM | Emax (HCT-116 [2]): 43%

CCc1c(C#N)c(SC(C(N)=O)c2ccccc2)nc(N(C)CC(N)=O)c1C#N (stereo unspecified)
DC50 [1]: 99 nM | Emax (HCT-116 [2]): 88%

CCc1c(C#N)c(SC(C(N)=O)c2ccccc2)nc(N2CCNC(=O)C2)c1C#N (stereo unspecified)
DC50 [1]: 534 nM | Emax (HCT-116 [2]): 65%

CCc1c(C#N)c(SC(C(N)=O)c2ccccc2)nc(N2CCN(C(=O)C3CNC3)CC2)c1C#N (stereo unspecified)
DC50 [1]: 820 nM | Emax (HCT-116 [2]): 56%

CCc1c(C#N)c(SC(C(N)=O)c2ccccc2)nc(N(C)CCNC(C)=O)c1C#N (stereo unspecified)
DC50 [1]: 753 nM | Emax (HCT-116 [2]): 56%

CCc1c(C#N)c(SC(C(N)=O)c2ccccc2)nc(N2CCNCC2)c1C#N (stereo unspecified)
DC50 [1]: 184 nM | Emax (HCT-116 [2]): 78%

CCc1c(C#N)c(SC(C(=O)NC)c2ccccc2)nc(N2CCC(N)CC2)c1C#N (stereo unspecified)
DC50 [1]: 111 nM | Emax (HCT-116 [2]): 82%
